Read-outs that look alike come from different tables or passages of the source.
How the values were obtained:
[1] = molecular target: CRBN protein (Homo sapiens, UniProt Q96SW2); assay: Binding activity to E3 ubiquitin ligase CRBN (HTRF competitive binding kit, Thalidomide-Red)
Text: Binding activity of the E3 ligase inhibitor disclosed in the present invention to E3 ubiquitin ligase CRBN
CRBN binding activity test kit (CEREBLON BINDING KITS (PE, 64BD CRBN PEG).
The detection is based on homogeneous time-resolved fluorescence (HTRF) technology.
This kit uses a europium-labeled GST antibody (GST Eu Cryptate Antibody) as the donor and XL665-labeled thalidomide (Thalidomide-Red reagent) as the receptor. The donor binds to the GST-tagged CRBN protein.
The donor and receptor were each diluted 50-fold using the buffer provided in the kit (PROTAC binding buffer 1). The CRBN protein was diluted 45-fold. An 8mM solution of the compound disclosed herein was diluted 10-fold using the diluent provided in the kit (1X diluent), followed by 7 successive 5-fold serial dilutions of the resulting solution.
The ratio of the acceptor and donor emission signals was calculated for each individual well.
IC50 values was calculated based on compound concentration, Ratio, and coefficient of variation using GraphPad Prism.

[2] = molecular target: T1, SMARCA2 (Homo sapiens, UniProt P51531); assay: SMARCA2 degradation in HeLa cells (Western blot); type: cell-based; parameters: endogenous in cells; settings: 4 hours
Experimental: (§1) Test Example 10 Degradation rate (%) of SMARCA2/4 by the PROTAC compounds of the present invention in HeLa cells and SW1573 cells
HeLa cells were seeded at 1.2 x 10^5 cells/well in a 6-well plate. 2 mL of EMEM medium supplemented with 10% FBS was added to each well and the culture dish was incubated overnight to allow the cells to adhere. The next day, 1 µL of 160 µM and 1 µL of 2 µM compound were added to the corresponding wells, resulting in final compound concentrations of 80 nM and 1 nM, respectively, and a final DMSO concentration of 0.05%. The cells were returned to the incubator and incubated for another 4 hours.
(§2) After 4 hours, cells were harvested, the culture medium was aspirated, and the cells were rinsed once with 1 mL/well PBS. The PBS was aspirated, and 40 µL/well of RIPA lysis buffer containing protease inhibitors was added. After lysis and centrifugation, total protein extracts were obtained, and protein concentration in the extracts was determined by BCA assay. Protein electrophoresis was performed by SDS-PAGE, followed by constant voltage electrophoresis at 100 V for 60 minutes and the protein was then transferred to a PVDF membrane. The PVDF membrane was blocked in 5% skim milk powder for 1 hour at room temperature. Primary antibodies (SMARCA2: CST#11966S, SMARCA4: CST#49360S, GAPDH: CST#5174S) were added and incubated overnight at 4°C. After washing the membrane, secondary antibodies were added and incubated at room temperature for 1 hour (protected from the light). After washing, the membrane was exposed using an Odyssey luminometer. Grayscale analysis of bands was performed using Image Studio software.
(§3) The degradation rate (%) of SMARCA2/4 by the PROTAC compounds of the present invention in HeLa cells and SW1573 cells is shown in Table 10. Table 10 Degradation rate of SMARCA2/4 by PROTAC compounds of the present invention in HeLa cells and SW1573 cells (%)

[3] = molecular target: T1, SMARCA2; assay: SMARCA2 degradation in SW1573 cells (Western blot); type: cell-based; parameters: endogenous in cells; host or cells: SW1573; settings: 24 hours
Experimental: as §1
SW1573 cells were seeded at 2x10^5Cells/well in a 6-well plate. 2 mL of EMEM medium supplemented with 10% FBS was added to each well and was incubated overnight to allow cell attachment. The next day, 1 µL of 160 µM and 1 µL of 2 µM compound were added to the corresponding wells for treatment, resulting in final compound concentrations of 80 nM and 1 nM, respectively, and a final DMSO concentration of 0.05%. The cells were returned to the incubator and incubated for another 24 hours.
as §2, with “After 24” for “After 4”, “the” for “the culture”
as §3

[4] = competition with XL665-labeled thalidomide for GST-tagged CRBN protein, HTRF, 3 hours at room temperature, read-out: IC50

Compound	IC50 [1, 4] [nM]	Degradation rate of SMARCA2 in HeLa cells (%) ([2]; 1 nM)	Degradation rate of SMARCA2 in HeLa cells (%) ([2]; 80 nM)	Degradation rate of SMARCA2 in SW1573 cells (%) ([3]; 1 nM)	Degradation rate of SMARCA2 in SW1573 cells (%) ([3]; 80 nM)	also measured
CN(c1ccc2c(c1)COC[C@H]1CNCCN21)C1CCC(=O)NC1=O (stereo partly shown) [Compound C14]	1850					
CN(c1ccc2c(c1)OCC21CCNCC1)C1CCC(=O)NC1=O (stereo not shown) [Compound C15, 3-(Methyl(2H-spiro[benzofuran-3,4'-piperidine]-6-yl)amino)piperidine-2,6-dione]	720					
O=C1CCC(Nc2ccc3c(c2)OC[C@@H]2CNCCN32)C(=O)N1 (stereo partly drawn) [Compound C16, 3-(((S)-1,2,3,4,4a,5-hexahydrobenzo[b]pyrazine[1,2-d][1,4]oxazine-8-yl)amino)piperidine-2,6-dione]	2160					
Cn1c(=O)n(C2CCC(=O)NC2=O)c2ccc3c(c21)OCC31CCNCC1 (stereo not shown) [Compound D2, 3-(1-Methyl-2-oxo-1,2-dihydro-3H,7H-spiro[benzofuro[6,7-d]imidazole-6,4'-piperidine]-3-yl)piperidine-2,6-dione]	28					
O=C1CCC(n2c(=O)n3c4c(cccc42)NCC3)C(=O)N1 (stereo not shown) [Compound D3, 3-(2-oxo-5,6-dihydro-4H-imidazo[1,5,4-de]quinoxalin-1(2H)-yl)piperidine-2,6-dione]	210					
Cn1c(=O)n(C2CCC(=O)NC2=O)c2ccc3c(c21)C1(CCNCC1)CO3 (stereo not shown) [Compound D4, 3-(1-Methyl-2-oxo-1,2-dihydro-3H,7H-spiro[benzofuran[4,5-d]imidazole-8,4'-piperidine]-3-yl)piperidine-2,6-dione]						IC50 [1]: 2300 nM
Cn1c(=O)n(C2CCC(=O)NC2=O)c2cc3c(cc21)OC1(CCNCC1)CC3 (stereo not shown) [Compound D5]						IC50 [1]: 660 nM
Cn1c(=O)n(C2CCC(=O)NC2=O)c2ccc3c(c21)OC[C@H]1CNCCN31 (stereo partly shown) [Compound D7]	400					
O=C1CCC(N2Cc3c(ccc4c3OCC43CCC4(CCNCC4)CC3)C2=O)C(=O)N1 (stereo not shown) [Compound D8]						IC50 [1]: 560 nM
O=C1CCC(N2Cc3c(ccc4c3OCC43CCC4(CC3)CNC4)C2=O)C(=O)N1 (stereo not shown) [Compound D9, 3-(6''-oxo-6''-,8''-dihydro-2''-H,7''-H-dipyrazolo[azetidin-3,1'-cyclohexane-4'-, 3"-furan[2,3-e]isoindole]-7"-yl)piperidine-2,6-dione]	650					
Cn1c(=O)n(C2CCC(=O)NC2=O)c2cc3c(cc21)C1(CCN(C2CC4(CCC(C#Cc5cc(-c6ccccc6O)nnc5N)CC4)C2)CC1)CO3 (stereo not shown) [SM-P-4, 3-(1'-(7-((3-amino-6-(2-hydroxyphenyl)pyridazin-4-yl)ethynyl)spiro[3.5]nonan-2-yl)-1-methyl-2-oxo-1,2-dihydro-3H,6H-spiro[benzofuro[5,6-d]imidazole-7,4'-piperidin]-3-yl)piperidine-2,6-dione]		100	99	100	100	
Nc1nnc(-c2ccccc2O)cc1C#CC1CCC2(CC1)CC(N1CCC3(CC1)COc1cc(C(=O)N[C@H]4CCC(=O)NC4=O)c(F)cc13)C2 (stereo partly shown) [SM-P-8]		28	64	9	61	
COc1cc2c(cc1C(=O)N[C@H]1CCC(=O)NC1=O)C1(CCN(C3CC4(CCC(C#Cc5cc(-c6ccccc6O)nnc5N)CC4)C3)CC1)CO2 (stereo partly drawn) [SM-P-14, (S)-1'-(7-((3-amino-6-(2-hydroxyphenyl)pyridazin-4-yl)ethynyl)spiro[3.5]nonan-2-yl)-N-(2,6-dioxopiperidin-3-yl)-6-methoxy-2H-spiro[benzofuran-3,4'-piperidin]-5-carboxamide]		-7	-3	22	14	
Nc1nnc(-c2ccccc2O)cc1C#CC1CCC2(CC1)CC(N1CCC3(CC1)COc1cc(F)c(C(=O)N[C@H]4CCC(=O)NC4=O)cc13)C2 (stereo partly shown) [SM-P-21]		15	4	-12	14	
Cn1c(=O)n(C2CCC(=O)NC2=O)c2ccc3c(c21)OCC31CCN(C2CC3(CCC(C#Cc4cc(-c5ccccc5O)nnc4N)CC3)C2)CC1 (stereo not shown) [SM-P-26, 3-(1'-(7-((3-amino-6-(2-hydroxyphenyl)pyridazin-4-yl)ethynyl)spiro[3.5]nonan-2-yl)-1-methyl-2-oxo-1,2-dihydro-3H,7H-spiro[benzofuro[6,7-d]imidazole-6,4'-piperidin]-3-yl)piperidine-2,6-dione]		100	99	100	99	
Cn1c(=O)n(C2CCC(=O)NC2=O)c2ccc3c(c21)OCC31CCN(C[C@H]2CC[C@H](Cn3cc(-c4cc(-c5ccccc5O)nnc4N)cn3)CC2)CC1 (stereo partly shown) [SM-P-29, 3-(1'-(((1r,4r)-4-((4-(3-amino-6-(2-hydroxyphenyl)pyridazin-4-yl)-1H-pyrazol-1-yl)methyl)cyclohexyl)methyl)-1-methyl-2-oxo-1,2-dihydro-3H,7H-spiro[benzofuro[6,7-d]imidazole-6,4'-piperidin]-3-yl)piperidine-2,6-dione]		100	90	100	99	
Cn1c(=O)n(C2CCC(=O)NC2=O)c2ccc3c(c21)OCC31CCN(C2CN(c3cc(-c4ccccc4O)nnc3N)C2)CC1 (stereo not shown) [SM-P-37, 3-(1'-(1-(3-amino-6-(2-hydroxyphenyl)pyridazin-4-yl)azetidin-3-yl)-1-methyl-2-oxo-1,2-dihydro-3H,7H-spiro[benzofuro[6,7-d]imidazole-6,4'-piperidin]-3-yl)piperidine-2,6-dione]		24	33			
(R) -N-((S)-2,6-Dioxyhesperidin-3-yl)-9-methoxy-6-methyl-2,3,4,4a,5,6-hexahydro-1H-pyrazino[1,2-a]quinoline-8-carboxamide [Compound B12]	37300					
